Results as given in US20230202992A1, “PHARMACEUTICAL COMPOSITION FOR PREVENTING OR TREATING SMALL-CELL LUNG CANCER ASSOCIATED WITH RON MUTANTS AND METHOD USING SAME” (WELLMARKER BIO CO., LTD., priority 2020, published 2023).

Tests used:
[1] = system: H417 cell line (small cell lung cancer cell line of a mutation RONΔ155 type); assay: Cell killing efficacy in small cell lung cancer cell line (PI staining, FACS); type: cell-based; settings: H417 cells (mRONΔ155), 1 μM, 72 hours, propidium iodide, FIG. 1
Protocol: The H417 cell line, which is a small cell lung cancer cell line of a mutation RONΔ155 type, was counted, and 2×10^5 cells were seeded in a 60 mm dish, respectively, and 24 hours later, treated with 1 μM of each of the compounds synthesized in Example 1 (WM-S1-030), Example 2, Example 3, Example 4, and Example 5 for 72 hours. As a positive control, a known RON inhibitor, BMS-777607 compound (1 μM), was used. BMS-777607 is N-{4-[(2-amino-3-chloro-4-pyridinyl)oxy]-3-fluorophenyl}-4-ethoxy-1-(4-fluorophenyl)-2-oxo-1,2-dihydro-3-pyridinecarboxamide, which is compound 1 disclosed in U.S. Pat. No. 8,536,200 B2. BMS-777607 is a well known RON inhibitor.
After 72 hours, all of the medium was transferred to a 15 mL conical tube and washed once with 1×PBS (phosphate buffered saline), and then the cells were harvested. Thereafter, the supernatant was removed by centrifugation at 1,000 rpm for 3 minutes, and propidium iodide (PI) was diluted in a FACS (Fluorescence-Activated Cell Sorting) buffer (PBS+2% FBS) at a ratio of 1:1000. The prepared buffer was added adequately depending on the number of cells, and then it was transferred to a FACS tube and reacted for 10 minutes. Thereafter, it was measured using a cytometer (FACS Analyzer).

[2] = system: H417 cell line (mRONΔ155) transplanted tumor; assay: Tumor growth inhibition in H417 cell line transplanted animal model; type: in vivo, mouse; settings: BALB/c-nude mice transplanted with H417, 30 mpk, oral, once a day for 3 weeks; FIG. 2
Protocol: It was confirmed whether tumor growth was inhibited by administering WM-S1-030 synthesized in Example 1 above at a dose of 30 mpk to a mouse model transplanted with the H417 cell line, which is a small cell lung cancer cell line of a mutation RONΔ155 type. Specifically, 5-week-old female BALB/c-nude mice were purchased and acclimatized for 1 week. Thereafter, H417 (5×10^6 cells/mouse), a small cell lung cancer cell line of a mutation RONΔ155 type, was diluted in PBS (phosphate buffered saline), and 100 μL was injected subcutaneously into the right dorsal side of the mouse. When the size of the tumor reached about 100 mm^3, WM-S1-030 was orally administered. At this time, the group orally administered with the vehicle was used as a negative control. The drug was administered once a day for 3 weeks, and the tumor size and body weight were measured twice a week. After the drug administration was completed, the mice were euthanized, the tumor was extracted, and the weight was measured.

cleaved caspase-3 = assay: Protein expression change in tumor tissue of H417 transplanted animal model, immunochemical staining; type: in vivo; settings: H417 transplanted mouse model, 3 mpk, 10 mpk, 30 mpk, FIG. 3
Protocol: (§1) WM-S1-030 synthesized in Example 1 above was administered at each concentration (3 mpk, 10 mpk, 30 mpk) to a mouse model transplanted with the H417 cell line, which is a small cell lung cancer cell line of a mutation RONΔ155 type, and then the tumor was extracted, and the expression changes of the proteins were analyzed by immunochemical staining.
(§2) Specifically, paraffin slides were prepared using tissues isolated from the sacrificed mice. The tissue sections were deparaffinized and rehydrated, immersed in the target recovery buffer 1×(ScyTek Laboratories, Cat #CBB999) and heated for 15 minutes to perform an antigen recovery process. After the reaction, the tissue sections were washed in Tris buffered saline-0.05% Tween 20 (TBS-T)(T&I, BTT-9310) for 5 minutes, and then the reaction was performed with a non-specific antibody reaction blocking reagent (vector, SP-5035) for 1 hour.
(§3) The tissue sections were cultured at 4° C. overnight with mRON (Abcam, ab52927, 1:50), pTyr-mRON (Mybioscience, MBS462024, 1:100), cleaved caspase-3 (Asp175XR&D Systems, MAB835, 1:50) and then washed with TBS-T for 5 minutes, and then endogenous peroxidase activity was blocked using a peroxidase blocking reagent (Cellmarque, 925B-05). Thereafter, the tissue sections were washed with TBS-T for 5 minutes and then incubated with a rabbit secondary antibody (vector, PK-6101) at room temperature for 1 hour. […]

pTyr-mRON = assay: as above; type: in vivo; settings: H417 transplanted mouse model, 3 mpk, 10 mpk, 30 mpk, FIG. 3
Protocol: as §1, §2, §3

Row | SMILES | cell death (cell killing efficacy) [1] | tumor growth [2] | expression of cleaved caspase-3 (cleaved caspase-3) | expression of pTyr-mRON (pTyr-mRON)
1 | CCOc1ccn(-c2ccc(F)cc2)c(=O)c1C(=O)Nc1ccc(Oc2ccnc(N)c2Cl)c(F)c1 [BMS-777607, N-{4-[(2-amino-3-chloro-4-pyridinyl)oxy]-3-fluorophenyl}-4-ethoxy-1-(4-fluorophenyl)-2-oxo-1,2-dihydro-3-pyridinecarboxamide] | low |  |  | 
2 | CCOc1ccn(-c2ccc(F)cc2)c(=O)c1C(=O)Nc1ccc(Oc2ccnc3cc(-c4ccc(CN5CCOCC5)cn4)sc23)c(F)c1.Cl [Example 1, 4-ethoxy-N-[3-fluoro-4-({2-[5-(morpholinomethyl)pyridin-2-yl]thieno[3,2-b]pyridin-7-yl}oxy)phenyl]-1-(4-fluorophenyl)-2-oxo-1,2-dihydropyridine-3-carboxamide hydrochloride] |  | significantly inhibited | induced | decreased
